{"source": "patent EP1287854B1", "about": "(Cancer Research Technology Limited, priority 2001, dated 2003)", "key": {"[1]": {"assay": "Host toxicity: lethality, body weight change, MTD in tumour-bearing mice", "settings": "for lowering of the MTD for the chemotherapy drug in the combination: co-administration of DMXAA 80 µmol/kg, one dose level; for MTD: MTD (µmol/kg)", "method": "(§1) Murine mammary carcinoma MDAH-Mca-4 tumours were grown in female C3H/HeN mice from stocks stored in liquid nitrogen at the sixth transplant generation, and were passaged and used for experiments at the eighth transplant generation. Tumours for experiments were grown by inoculating 20 µl of cell suspension ([…] packed cells) intramuscularly in the right gastrocenmius muscle. Animals were randomised to treatment groups, and treated with drugs when the diameter of the tumour-bearing leg reached 10-11 mm (ca. 0.6 g tumour), approximately 18 days after inoculation. […] Both compounds were administered essentially at the same time (within 1 min). Host toxicity was assessed by determination of lethality, and by measurement of body weight 4-5 days after drug treatment. The diameter of the tumour-bearing leg was measured three times weekly until values exceeded 13 mm (ca 1.4 g tumour) at which time the animals were terminated. The growth curve for each individual tumour was plotted as in Figure 1, and the time-to-endpoint (TTE, time from treatment to endpoint) was determined for each mouse. The median and mean TTE was determined for each treatment group. The mean tumour growth delay for each group was calculated as the difference between mean TTE for treated and control groups. The statistical significance of the antitumour effects was tested using ANOVA followed by Dunnett's test to determine p values for the significance of differences between individual groups.\n(§2) Toxicity was assessed as lethality, and body weight loss measured four days after treatment. Any animals becoming moribund were terminated and treated as drug-related deaths in the analysis. The diameter of the tumour-bearing leg was measured 3 times per week after treatment. Antitumour activity was assessed from the tumour growth delay, defined as the difference in time to reach the endpoint of 13 mm (1.5 g tumour) for treated and control groups. Responses were classed as cures if animals were free of evident tumour 120 days after treatment. The statistical significance of tumour growth inhibition was tested by ANOVA using SAS for Windows, with Dunnett's test to evaluate p-values for differences between treatment groups. In experiments with substantial numbers of cures (free of tumour for > 120 days after treatment), statistical significance was tested by Kruskal-Wallis non-parametric analysis of variance using SAS for Windows, and the difference between treatment and control groups by Dunn's test using Sigmastat v2.0."}, "[2]": {"test_system": "Murine mammary carcinoma MDAH-Mca-4 tumours", "assay": "Tumour growth delay and cures, MDAH-Mca-4 tumours grown i.m. in mice", "assay_type": "in vivo, female C3H/HeN mice", "settings": "for activity against the MDAH-Mca-4 tumour (in words): single i.p. dose, alone or co-administered with DMXAA 80 µmol/kg", "method": "as §1\nAnimals and Tumours: Murine mammary carcinoma MDAH-Mca-4 tumours were grown from stocks stored in liquid nitrogen at the sixth transplant generation. Tumours (eighth transplant generation when used) were grown from 20 µl of cell suspension (7 mg packed cells), inoculated i.m. in the right gastrocnemius muscle of female C3H/HeN mice (22-25 g at the time of treatment). Mice were randomised to treatment which commenced when the tumour + leg diameter reached 10-11 mm (0.5-0.7 g tumour).\nas §2"}, "in vivo": {"assay": "in vivo", "settings": "female, C3H/HeN, mouse; for AUC: intraperitoneal", "experimental": "(§3) At various times blood was collected from the retro-orbital sinus of anaesthetised mice into heparinised tubes, and the plasma separated by centrifugation. Tumours were rapidly dissected and frozen at -80°C. Groups of 2-5 mice were used for each time point.\n(§4) LC-MS analysis of paclitaxel: Concentrations of paclitaxel in plasma and tumour were determined by HPLC with detection by positive mode electrospray mass spectrometry. Aliquots of plasma (50 µl) were treated with 1ml of ice-cold acetonitrile:methanol (3:1 v/v) to precipitate proteins. Following addition of 5 µl of an internal standard solution (10 mM cephalomannine), samples were centrifuged, and the resulting supernatants evaporated using a Speed-Vac solvent concentrator (Savant Instruments, NY). The residues were dissolved in 100 µl of 1:1 (v/v) methanol:mobile phase (48% acetonitrile, 52% 1mM sodium acetate buffer (pH 6.2)), and 5-40 µl analysed by LC-MS. Frozen tumours were minced, then homogenised in 2 vol distilled water using a Polytron homogeniser. Ice-cold acetonitrile (1 ml), and 10 µl of internal standard (20 µM cephalomannine) was added to 200 µl of tumour homogenate. The samples were centrifuged and the supernatants dried as above. The residues were dissolved in 200 µl of 1:1 (v/v) methanol:mobile phase, and 5 µl analysed by LC-MS.\n(§5) The LC-MS system was an Agilent HP1100/MSD (Hewlett Packard Waldbronn, Germany) with a 3.2 mm x 150 mm C8 5 µm column (Alltima Associates Inc., Deerfield, IL) and a flow rate of 0.7 ml/min. The mass detector used N2 as the nebulizing and drying gas (flow rate 10 L/min, 350°C; neubulizer pressure 25 psi, capillary voltage 2500 V, fragmentor voltage 120 V). Paclitaxel (MW 854) and cephalomannine internal standard (MW 832) were detected, using single ion monitoring, as sodium adducts at m/z of 876 and 854, respectively. Spiking of control material indicated assay linearity from 0.3-30 µM for both plasma and tumour (r^2 = 0.999). The intra- and inter- assay precision and accuracy gave coefficients of variation ≤ 5%, and recoveries in the range 92-102%. The lower limit of detection of paclitaxel in plasma and tumour (signal:noise ratio of 3) was 0.3 µM.\n(§6) Aliquots of plasma (50 µl) were treated with 1 ml of ice-cold acetonitrile:methanol (3:1 v/v), centrifuged, and the resulting supernatants evaporated as above. The residues were dissolved in 200 µl of 10 mM ammonium acetate buffer (pH 5) and 25 µl was analysed by HPLC using a HP1100 system with diode array detector (278 nm) and fluorescence detector. The column and flow rate were as for paclitaxel above, with a mobile phase of 16% acetonitrile (v/v) in 10 mM ammonium acetate buffer (pH 5). […] The intra- and inter- assay precision and accuracy gave coefficients of variation <7%, and an average recovery of 70%. The lower sensitivity limit of detection by fluorescence (signal:noise ration of 3) was 0.1 µM.\n(§7) Pharmacokinetic Modelling: Modelling of pharmacokinetic data was done using ModelMaker version 4.0 (Cherwell Scientific Limited, The Magdalen Centre, Oxford Science Park, Oxford OX4 4GA, United Kingdom). The following pharmacokinetic parameters were used: Kabs, the first-order rate constant for absorption into the central compartment; Cl, total body clearance; Clinter, intercompartmental clearance; Vd, apparent volume of distribution of the central compartment; Vd2, apparent volume of distribution of the second compartment; Km, Michaelis-Menten constant; Vmax, theoretical maximum rate; AUC, area under the concentration-time curve. For all compounds it was assumed that all of the administered dose would reach the central compartment (i.e. 100% bioavailability). Differences between treatment groups were tested using a F-test comparing the entire curves and if this difference was significant (i.e. p≤0.05) the estimates of each individual model parameter for both groups were tested using a 2-tailed t-test."}, "[3]": {"assay": "Pharmacokinetics in plasma and tumour of tumour-bearing mice", "experimental": "as §3, §4, §5, §6, §7"}, "MDAH-Mca-4 tumour": {"test_system": "MDAH-Mca-4 tumour", "assay": "Tumour blood flow inhibition, Hoechst 33342 perfusion marker", "assay_type": "in vivo, mice", "settings": "DMXAA at 80 µmol/kg (Fig 6A)", "method": "Tumour blood flow inhibition: Tumour blood flow was assessed using the fluorescent perfusion marker Hoechst 33342 (8mg/ml in saline), which was administered i.v. at various times after drug treatment. Mice were scarified 2 min later, and frozen sections (14 µm) prepared from the distal, central and proximal regions of each tumour. Sections were examined with a Nikon epifluorescence microscope at 10x magnification using a UV-1A filter block (excitation 365 nm, barrier filter 400 nm, and dichroic mirror 400 nm). A grid with 81 squares (100 x 100 µm), was used for point scoring of staining. The whole area of each section was scored to avoid bias between peripheral and central regions (which were less well perfused). Normal tissue was excluded but necrotic areas were included. Differences between groups were treated for significance using the Student's t-test (Sigma Stat, version-2.0; Jandel Scientific Limited)."}, "[4]": {"settings": "chemotherapy drug alone at its MTD, i.p."}, "[5]": {"settings": "chemotherapy drug at MTD of combination, co-administered with DMXAA 80 µmol/kg"}, "[6]": {"settings": "female, C3H/HeN, mouse, in vivo, ip, chemotherapy drug alone (no DMXAA)"}, "[7]": {"settings": "female, C3H/HeN, mouse, in vivo, ip, chemotherapy drug co-administered with DMXAA 80 µmol/kg"}, "[8]": {"settings": "paclitaxel 31.6 µmol/kg alone, i.p. once"}, "[9]": {"settings": "paclitaxel 31.6 µmol/kg alone, i.p. once, 7 mice treated"}, "[10]": {"settings": "chemotherapy drug alone, linear regression of growth delay on dose"}, "[11]": {"settings": "chemotherapy drug co-administered with DMXAA 80 µmol/kg, linear regression"}, "[12]": {"settings": "DMXAA 80 µmol/kg alone, i.p. once (Table 1)"}}, "note": "Several values for one entry are separate records, joined by “and”; a condition that tells them apart may be missing. Identical values can stand only once. Marks after values point to notes of the source that are not given here."}
{"molecule": "CC(=O)O[C@H]1C(=O)[C@@]2(C)[C@H]([C@H](OC(=O)c3ccccc3)[C@]3(O)C[C@H](OC(=O)[C@H](O)[C@@H](NC(=O)c4ccccc4)c4ccccc4)C(C)=C1C3(C)C)[C@]1(OC(C)=O)CO[C@@H]1C[C@@H]2O", "note": "[paclitaxel, 5β, 20-Epoxy-1,2a,4,7β,10β,13a-hexahydroxytax-11-en-9-one 4,10-diacetate 2-benzoate 13-ester with (2R, 3 S)-N-benzoyl-3-phenylisoserine]", "values": [{"measurement": "% body weight change at 4 days", "setting": "[1]; [4]", "value": "0.3 ± 1.1", "unit": "%"}, {"measurement": "% body weight change at 4 days", "setting": "[1]; [5]", "value": "-3.9 ± 1.2", "unit": "%"}, {"measurement": "lowering of the MTD for the chemotherapy drug in the combination", "setting": "[1]", "value": 1.33, "unit": "fold"}, {"measurement": "Number of mice Deaths", "setting": "[1]; female, C3H/HeN, mouse, in vivo, ip, 42.1 µmol/kg", "value": 0}, {"measurement": "MTD", "setting": "[1]; [6]", "value": 42.1, "unit": "µmol/kg"}, {"measurement": "MTD", "setting": "[1]; [7]", "value": 31.6, "unit": "µmol/kg"}, {"measurement": "% Body weight change (d4-5) Mean", "setting": "[1]; mouse, in vivo, ip", "value": 0.3, "unit": "%"}, {"measurement": "% Body weight change (d4-5) Mean", "setting": "[1]; [8]", "value": 1.9, "unit": "%"}, {"measurement": "Number of mice Deaths", "setting": "[1]; [9]", "value": 0}, {"measurement": "antitumour activity", "setting": "[2]; DMXAA dose-response experiment (Fig 5), paclitaxel alone at 23.7 µmol/kg", "value": "no significant activity"}, {"measurement": "Slope of dose/response", "setting": "[2]; [10]", "value": "0.08 ± 0.06", "unit": "days/µmol/kg"}, {"measurement": "Slope of dose/response", "setting": "[2]; [11]", "value": "1.83 ± 0.4", "unit": "days/µmol/kg"}, {"measurement": "DMF", "setting": "[2]; gradient with DMXAA/gradient without DMXAA, estimated using upper error estimate of the slope for the chemotherapy drug only", "value": "significantly greater than unity"}, {"measurement": "DMF", "setting": "[2]; gradient with DMXAA/gradient without DMXAA, estimated using upper error estimate of the slope for the chemotherapy drug only, listed as Paclitaxel", "value": ">13^c"}, {"measurement": "Growth delay (days) Mean", "setting": "[2]; [8]", "value": 0.1, "unit": "days"}, {"measurement": "Number of mice Cures", "setting": "[2]; [9]", "value": 0}, {"measurement": "Growth delay (days) Mean", "setting": "[2]; paclitaxel 42.1 µmol/kg alone, i.p. once", "value": "4 days and 4.3 days"}, {"measurement": "Number of mice Cures", "setting": "[2]; paclitaxel 42.1 µmol/kg alone, i.p. once, 7 mice treated", "value": 0}, {"measurement": "activity against the MDAH-Mca-4 tumour (in words)", "setting": "[2]", "value": "essentially inactive"}, {"measurement": "AUC", "setting": "in vivo; plasma, 23.7 umol/kg", "value": 18.8, "unit": "µM·h"}, {"measurement": "AUC", "setting": "in vivo; tumour, 23.7 umol/kg", "value": 32.8, "unit": "µM·h"}]}
{"molecule": "Cc1ccc2c(=O)c3cccc(CC(=O)O)c3oc2c1C", "note": "[DMXAA, 5,6-dimethylxanthenone-4-acetic acid]", "values": [{"measurement": "effect of co-administration on DMXAA plasma pharmacokinetic parameters", "setting": "[3]; DMXAA 80 µmol/kg with paclitaxel at 23.7 µmol/kg", "value": "unaffected"}, {"measurement": "Vmax (µM hr^-1)", "setting": "[3]; Plasma, DMXAA 80 µmol/kg i.p., parentheses % CV", "value": "63 (6.1) µM hr^-1"}, {"measurement": "inhibition of tumour blood flow (H33342 perfusion), time course", "setting": "MDAH-Mca-4 tumour", "value": "prompt and irreversible blood flow shutdown, with no recovery by 24 hr"}, {"measurement": "% Body weight change (d4-5) Mean", "setting": "[1]; DMXAA 80 µmol/kg alone (Table 3)", "value": -4.8, "unit": "%"}, {"measurement": "% Body weight change (d4-5) Mean", "setting": "[1]; [12]", "value": -4.1, "unit": "%"}, {"measurement": "Growth delay (days) Median", "setting": "[2]; DMXAA 80 µmol/kg alone (Table 3, interim analysis)", "value": 10.5, "unit": "days"}, {"measurement": "Growth delay (days) Mean", "setting": "[2]; [12]", "value": 8.3, "unit": "days"}, {"measurement": "Number of mice Cures", "setting": "[2]; DMXAA 80 µmol/kg alone, i.p. once, 7 mice treated (Table 1)", "value": 0}, {"measurement": "mean tumour growth delays (range over experiments)", "setting": "[2]; DMXAA alone at 80 µmol/kg", "value": "3.5 to 8.3", "unit": "days"}, {"measurement": "tumour growth delay, overall mean", "setting": "[2]; DMXAA alone at 80 µmol/kg, all experiments", "value": "6.6 ± 0.6", "unit": "days"}, {"measurement": "AUC", "setting": "in vivo; plasma, 80 umol/kg", "value": 3630, "unit": "µM·h"}, {"measurement": "Km", "setting": "in vivo; plasma, ip, 80 µmol/kg", "value": 220, "unit": "µM"}]}
{"molecule": "CC(=O)O[C@@]12CO[C@@H]1C[C@H](O)[C@@]1(C)C(=O)[C@H](O)C3=C(C)[C@@H](OC(=O)[C@H](O)[C@@H](NC(=O)OC(C)(C)C)c4ccccc4)C[C@@](O)([C@@H](OC(=O)c4ccccc4)[C@H]21)C3(C)C", "note": "[docetaxel, (2R,3S)-N-carboxy-3-phenylisoserine, N tert-butyl ester, 13-ester with 5b-20-epoxy-1,2a,4,7b,10b,13a-hexahydroxytax-11-en-9-one 4-acetate 2-benzoate trihydrate]", "values": [{"measurement": "% Body weight change (d4-5) Mean", "setting": "[1]; Docetaxel 17.8 µmol/kg alone", "value": -1.8, "unit": "%"}, {"measurement": "Number of mice Deaths", "setting": "[1]; Docetaxel 17.8 µmol/kg alone, 2 mice treated, interim analysis", "value": 0}, {"measurement": "% Body weight change (d4-5) Mean", "setting": "[1]; Docetaxel 23.7 µmol/kg alone", "value": -4.1, "unit": "%"}, {"measurement": "Number of mice Deaths", "setting": "[1]; Docetaxel 23.7 µmol/kg alone, 5 mice treated, interim analysis", "value": 0}, {"measurement": "% body weight change at 4 days", "setting": "[1]; [4]", "value": "-4.1 ± 1.3", "unit": "%"}, {"measurement": "% body weight change at 4 days", "setting": "[1]; [5]", "value": "-7.2 ± 1.2", "unit": "%"}, {"measurement": "lowering of the MTD for the chemotherapy drug in the combination", "setting": "[1]", "value": 1.33, "unit": "fold"}, {"measurement": "MTD", "setting": "[1]; [6]", "value": 23.7, "unit": "µmol/kg"}, {"measurement": "MTD", "setting": "[1]; [7]", "value": 17.8, "unit": "µmol/kg"}, {"measurement": "Growth delay (days) Median", "setting": "[2]; Docetaxel 17.8 µmol/kg alone, interim analysis", "value": -1.7, "unit": "days"}, {"measurement": "Growth delay (days) Median", "setting": "[2]; Docetaxel 23.7 µmol/kg alone, interim analysis", "value": 0.8, "unit": "days"}, {"measurement": "Slope of dose/response", "setting": "[2]; [10]", "value": "-0.02 ± 0.14", "unit": "days/µmol/kg"}, {"measurement": "Slope of dose/response", "setting": "[2]; [11]", "value": "1.37 ± 0.22", "unit": "days/µmol/kg"}, {"measurement": "DMF", "setting": "[2]; gradient with DMXAA/gradient without DMXAA, estimated using upper error estimate of the slope for the chemotherapy drug only, trihydrate", "value": "significantly greater than unity"}, {"measurement": "DMF", "setting": "[2]; im", "value": ">9^c"}, {"measurement": "activity against the MDAH-Mca-4 tumour (in words)", "setting": "[2]; listed as Docetaxel, trihydrate", "value": "essentially inactive"}, {"measurement": "activity against the MDAH-Mca-4 tumour (in words)", "setting": "[2]; trihydrate", "value": "essentially devoid of activity"}]}
